Here are results for one molecule from paper PMC8704709, “Improved Anticancer Activities of a New Pentafluorothio-Substituted Vorinostat-Type Histone Deacetylase Inhibitor” (Pharmaceuticals, 2021).

The target of data set [1] is T1, human recombinant HDAC6 (Homo sapiens, UniProt Q9UBN7).
T1 construct: purchased BPS Biosciences, San Diego, CA, USA
T1 sequence (Q9UBN7 1-1215): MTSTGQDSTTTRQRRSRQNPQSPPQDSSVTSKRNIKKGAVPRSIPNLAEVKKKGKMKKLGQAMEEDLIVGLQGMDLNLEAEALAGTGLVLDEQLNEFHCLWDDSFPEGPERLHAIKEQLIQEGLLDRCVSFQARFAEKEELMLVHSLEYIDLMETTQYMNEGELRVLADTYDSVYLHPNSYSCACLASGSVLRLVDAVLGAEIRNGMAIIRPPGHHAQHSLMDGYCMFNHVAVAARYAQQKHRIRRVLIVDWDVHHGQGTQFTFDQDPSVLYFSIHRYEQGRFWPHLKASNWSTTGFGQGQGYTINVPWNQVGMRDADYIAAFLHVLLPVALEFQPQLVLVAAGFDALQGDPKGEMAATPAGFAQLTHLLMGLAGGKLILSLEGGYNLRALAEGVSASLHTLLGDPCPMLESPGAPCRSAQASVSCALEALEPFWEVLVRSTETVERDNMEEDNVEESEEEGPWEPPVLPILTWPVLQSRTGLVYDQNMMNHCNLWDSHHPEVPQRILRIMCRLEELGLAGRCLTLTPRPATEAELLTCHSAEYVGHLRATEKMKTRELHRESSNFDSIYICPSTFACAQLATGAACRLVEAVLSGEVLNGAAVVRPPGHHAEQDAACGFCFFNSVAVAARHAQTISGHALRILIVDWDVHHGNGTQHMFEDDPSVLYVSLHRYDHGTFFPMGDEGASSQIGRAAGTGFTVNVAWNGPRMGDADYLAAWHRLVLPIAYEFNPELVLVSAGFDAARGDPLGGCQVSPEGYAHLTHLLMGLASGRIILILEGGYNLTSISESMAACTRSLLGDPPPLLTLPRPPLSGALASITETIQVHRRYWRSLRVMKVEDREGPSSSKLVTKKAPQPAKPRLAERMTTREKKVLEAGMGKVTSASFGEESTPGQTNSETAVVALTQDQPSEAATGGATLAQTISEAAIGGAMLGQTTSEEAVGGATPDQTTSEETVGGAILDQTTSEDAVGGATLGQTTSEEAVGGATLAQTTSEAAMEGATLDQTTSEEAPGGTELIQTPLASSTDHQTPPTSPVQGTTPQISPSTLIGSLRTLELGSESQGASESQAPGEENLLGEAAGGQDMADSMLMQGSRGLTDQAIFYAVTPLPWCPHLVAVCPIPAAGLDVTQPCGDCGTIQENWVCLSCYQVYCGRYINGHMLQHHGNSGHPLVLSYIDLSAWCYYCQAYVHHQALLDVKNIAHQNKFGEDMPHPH
The data set is described as follows: Fluorogenic subtype-specific HDAC assay. The class given is biochemical. The following applies: cell-free enzymatic assay, 1–10 µM.

The test system of data set [2] is T-cell leukemia/lymphoma cells (Jurkat, Hut78, SMZ1, SupT11). The data set is described as follows: Western blot in T-cell leukemia/lymphoma cells (acetyl-H3, acetyl-α-tubulin). The class given is cell-based, human. Particulars: 24 h. The procedure: (§1) Western blots were performed as described earlier. Cells were seeded in 100 mm petri dishes, grown to almost confluency, treated for 24 h, washed and frozen, followed by lysis with RIPA Buffer, added with one cOmplete™ Mini protease Inhibitor tablet/10 mL (Roche), and quantification with Pierce^TM BCA Protein Assay Kit (Thermo Fisher Scientific). Thereafter protein levels were normalized to untreated controls so equal protein loading of 20 µg/lane. Laemmli Buffer and β-mercaptoethanol were added before probes were desaturated at 96 °C for 10 min. First, 7.5% or 12% SDS gels (Biorad, Munich, Germany) were loaded with proteins and electrophoresis was done. Thereafter, proteins were transferred to activated polyvinylidene difluoride membranes (PVDF) by electroblotting. Finally, the membranes were blocked with 1% BSA and incubated with primary antibodies over night at 4 °C. […] Only the Jurkat cells had already a high level of α-tubulin in untreated cells and, thus, drug-induced changes were not detectable in these cells.
Blots were washed three times with 1% TBS-Tween and incubated with anti-mouse or anti-rabbit peroxidase-coupled anti-IgG secondary antibodies (1:5000–1:10,000) at room temperature for 60 min. […]
For orientation: Immunoblotting shows a protein as a band on a membrane.

Data set [3] deals with DU145 cells. Put plainly: Unspecific cytotoxicity (LDH release). The following applies: 1–10 µM, 3 and 24 h. The class given is cell-based, human. Here is the method: To exclude unspecific cytotoxicity as the driving mode of action for antiproliferative effects, the release of lactate dehydrogenase (LDH) from DU145 cells was determined after 3 h and 24 h of treatment using the Cytotoxicity Detection Kit PLUS LDH (Roche Diagnostics GmbH, Mannheim, Germany). The assay was performed as described earlier. Cytotoxicity was determined by subtracting the percentage of LDH release into the supernatant under control conditions of those from treated samples. Measurements were performed in duplicate in n = 3 independent experiments and mean percentage changes ± SEM as compared to controls are shown.
(LDH in the medium is a marker of cell lysis.)

Data set [4] has as its system Hep-G2 hepatoblastoma cells. Put plainly: Antiproliferative activity assay (crystal violet staining). The class given is cell-based. Particulars: Homo sapiens, HepG2, as determined after 48 h, means ± SEM, n ≥ 3, read-out: Growth inhibitory activity IC50, Hep-G2. The procedure: (§2) Stock solutions (10 mM) prepared by dissolution in DMSO were stored at −20 °C. Working solutions were always freshly prepared before each experiment by dilution of stock solution with medium. The final DMSO concentration never exceeded 0.25%. Treatment-induced changes in cell number were determined by crystal violet (N-hexamethylpararosaniline from Sigma Aldrich) staining. 1000 cells/well (DU145) or 1500 cells/well (Hep-G2) were seeded in 96-well plates and maintained for adherence in an incubator (37 °C, 5% CO2, humidified atmosphere) for 48 h prior to the beginning of the treatment. […] Thereafter, the cells were fixed with 1% glutaraldehyde and stained with 0.1% crystal violet. The unbound dye was removed by rinsing with water. Bound crystal violet was solubilized with 0.2% Triton X-100 (Sigma-Aldrich). Light extinction of crystal violet, which increases linearly with the cell number, was analyzed at 570 nm using an ELISA-Reader (Dynex Technologies, Denkendorf, Germany). For T-cell leukemia/lymphoma cell lines apoptosis was determined using dual staining for Annexin-V and 7AAD via flow cytometry.

Data set [5] deals with DU145 prostate carcinoma cells. The data set is described as above. The class given is cell-based. Particulars: Homo sapiens, DU-145, as determined after 48 h, means ± SEM, n ≥ 3, read-out: Growth inhibitory activity IC50, DU145. The procedure: as §2
Data set [6] concerns the target T2, human recombinant HDAC1 (Homo sapiens, UniProt Q13547).
T2 construct: purchased BPS Biosciences, San Diego, CA, USA
The data set is described as follows: Fluorogenic subtype-specific HDAC assay. The following applies: cell-free enzymatic assay, 1–10 µM. The class given is biochemical.

The test system of data set [7] is Hep-G2 cells. Put plainly: Western blot in Hep-G2 cells (acetyl-H3, Apaf-1, Bcl-2). The class given is cell-based, human. The following applies: 24 h. Here is the method: as §1
Blots were washed three times with 1% TBS-Tween and incubated with anti-mouse or anti-rabbit peroxidase-coupled anti-IgG secondary antibodies (1:5000–1:10,000) at room temperature for 60 min. Subsequently, antibody bondage was illustrated using Clarity and Clarity Max ECL Western Blotting Substrates (Biorad, Munich, Germany) for detection and Celvin-S developer (Biostep, software SnapAndGo Vs 1.8.1) for development. […] Values were normalized to β-actin expression, which served as a loading control and compared to untreated control expressions which was set at 1. The mean ± SEM of the relative values to control are illustrated with Graph Pad Prism 8.

SMILES strings stand for the structures.

T2 sequence (Q13547 whole entry): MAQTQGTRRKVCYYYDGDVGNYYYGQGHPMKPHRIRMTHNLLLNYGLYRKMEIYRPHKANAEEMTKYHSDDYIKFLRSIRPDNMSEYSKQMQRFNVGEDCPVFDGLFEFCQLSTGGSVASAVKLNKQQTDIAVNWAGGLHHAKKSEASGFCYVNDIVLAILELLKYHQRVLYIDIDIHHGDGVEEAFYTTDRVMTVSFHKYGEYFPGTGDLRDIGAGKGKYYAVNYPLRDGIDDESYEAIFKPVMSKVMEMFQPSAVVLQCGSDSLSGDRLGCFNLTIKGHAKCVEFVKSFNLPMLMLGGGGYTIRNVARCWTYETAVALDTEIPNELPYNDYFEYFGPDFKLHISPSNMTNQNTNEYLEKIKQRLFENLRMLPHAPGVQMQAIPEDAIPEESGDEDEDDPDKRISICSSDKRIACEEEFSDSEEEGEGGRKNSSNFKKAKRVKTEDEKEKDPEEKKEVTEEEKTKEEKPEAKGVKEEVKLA

On to `O=C(CCCCCCC(=O)Nc1ccc(S(F)(F)(F)(F)F)cc1)NO` [SF5-SAHA], for which the “HDAC6 inhibition (comparison)” value in data set [1] is “distinctly stronger HDAC6 inhibition than SAHA”. Further, the acetyl-α-tubulin level result in data set [2] is reported as “increased in a dose-dependent way in three out of four tested cell lines”. Besides, the “acetylated histone H3 level” value is “Dose-dependent increases in acetylated H3 were observed in all tested leukemia/lymphoma cancer cell lines” in data set [2] and “dose-dependent rise of H3 acetylation” in data set [7]. For the same molecule, the “LDH release (unspecific cytotoxicity)” value in data set [3] is recorded as “did not induce significant increases in LDH release”. Also, the IC50 (as a rule, the concentration at which inhibition is half-maximal) in data set [4] came to 1790 ± 1060 nM; in data set [5], 730 ± 1080 nM. Moreover, the “HDAC1 inhibition (comparison)” value in data set [6] was “comparable activities against HDAC1”. In data set [7] (2 µM and 4 µM), the Bcl-2 expression entry is “downregulated”. Further, the Apaf-1 expression entry in data set [7] (2 and 4 µM) was “increased Apaf-1 expression”.
